Measured values reported in article PMC11721617, “Novel isobavachalcone derivatives induce apoptosis and necroptosis in human non-small cell lung cancer H1975 cells” (Journal of Enzyme Inhibition and Medicinal Chemistry, 2023).
Like-named read-outs stand apart in the source and are kept apart here.

What was measured:
[1] = system: Bax, Bcl-2, Akt, Cyt C, caspase-9, caspase-3, RIP1, RIP3, p-RIP3, MLKL, p-MLKL in H1975 cells; assay: Western blotting of apoptosis- and necroptosis-related proteins; format: cell-based, human
Description: Cells were seeded in 100 mm dishes at a density of 3 × 10^6 cells/well and treated with different concentrations (0, 10, 20, 40, and 80 μM) of compound 16. After incubated for 24 h, the cells were harvested, and washed three times with PBS solution. Next, the cells were lysed with RIPA lysis buffer for 30 min on ice. Protein quantification was determined using the BCA protein assay kit. Equal amounts of proteins were separated by sodium dodecyl sulfate-polyacrylamide gel electrophoresis (SDS-PAGE) and transferred to PVDF membrane. The membrane was blocked with 5% non-fat milk and incubated with primary antibodies (Bax, Bcl-2, Akt, Cyt C, Caspase-9, Caspase-3, RIP1, RIP3, p-RIP3, MLKL, p-MLKL, and β-actin) for 2 h at room temperature, followed by the secondary antibodies for 2 h at room temperature. Finally, the blots were detected by a chemiluminescent gel imaging system (Bio-Rad, Hercules, CA, USA).

H1975 cells [2] = assay: ATP detection; format: cell-based, human; conditions: H1975, 10, 20, 40, and 80 μM, 6 h
Description: Cells were seeded in 6-well plates at a density of 3 × 10^5 cells/well and incubated with different concentrations (0, 10, 20, 40, and 80 μM) of compound 16 for 6 h. Afterwards, the cells were washed three times with PBS, lysed with RIPA buffer, and the lysates were centrifuged at 12 000 rpm for 5 min. The intracellular ATP levels were measured using a luminoskan luminometer (Thermo Scientific, Atlanta, GA, USA), according to the ATP assay kit’s protocol.

H1975 cells [3] = assay: Colony-formation assay; format: cell-based, human; conditions: 10 days
Description: Cells were seeded at a density of 1.5 × 10^3 cells/well into 6-well plates. When colonies formed, the media was replaced with fresh media at various concentrations of compound 16 (0, 1, 2, and 4 μM) and incubated for 10 days. At the end of the incubation time, the cells were washed three times with PBS, fixed with 4% paraformaldehyde for 15 min, stained with crystal violet solution for 10 min, and photographed.

PC9 = assay: MTT assay, cytotoxic activity; format: cell-based; conditions: Homo sapiens, PC-9, PC9 cells, 72 h
Description: (§1) Four cell lines (H1975, A549, PC9, and Aml-12) were cultured in RPMI 1640 medium containing 10% foetal bovine serum (FBS) and 1% penicillin/streptomycin in an atmosphere with 5% CO2 and 95% relative humidity at 37 °C.
(§2) Cell viability was examined using the MTT assay. The cells grown in the logarithmic phase were seeded in 96-well plates at a density of 5 × 10^3 per well. The cells were treated with various concentrations (0, 5, 10, 20, 40, and 80 μM) of the compound at different times, respectively. At the end of time point, MTT solution (5 mg/ml) was added to each well and incubated at 37 °C for 4 h. Next, the media was removed, and formazan was dissolved in DMSO. Finally, absorbance was measured with a microplate spectrophotometer at 490 nm (Synergy HT, BioTek, VT, USA).

H1975 cells [4] = assay: Detection of intracellular ROS (DCFH-DA, flow cytometry); format: cell-based, human
Description: Cells were seeded in 6-well plates at a density of 3 × 10^5 cells/well and incubated with different concentrations (0, 10, 20, 40, and 80 μM) of compound 16 or pre-treated with NAC (20 μM) incubated for 6 h, the cells were co-incubated with DCFH-DA for 20 min at 37° C in the dark. Finally, the intracellular ROS levels were measured using flow cytometry (Becton-Dickinson, Franklin Lakes, NJ, USA).

A549 = assay: MTT assay, cytotoxic activity; format: cell-based, human; conditions: A549 cells
Description: as §1, §2

H1975 cells [5] = assay: Flow cytometry with Annexin V/PI dual staining; format: cell-based, human; conditions: 24 h
Description: Cells were seeded (3 × 10^5 per well) in 6-well plates and incubated overnight. After adherence, the cells were treated with various concentrations (0, 10, 20, 40, and 80 μM) of compound 16 for 24 h. Furthermore, the cells were harvested, washed three times with PBS, and stained with Annexin V (FITC Annexin V) and propidium iodide (PI) staining solution for 30 min in the dark. The percentage of cell death was measured by flow cytometry (Becton-Dickinson, Franklin Lakes, NJ, USA).

Aml-12 cells = assay: MTT assay, cytotoxic activity on normal hepatocytes; format: cell-based, mouse; conditions: Aml-12 cells relative to H1975 cells
Description: as §1, §2

[6] = as above; format: cell-based, mouse; conditions: Aml-12 cells (normal hepatocytes); normal mouse hepatocytes Aml-12 cells, 72 h
Description: as §1, §2

H1975 = assay: MTT assay, cytotoxic activity / cell viability; format: cell-based, human; conditions: for viability at 40 µM / IC50: Homo sapiens; for IC50: NCI-H1975
Description: as §1, §2

## COc1cc(C(c2cc(C(=O)C=Cc3ccc(O)cc3)c(O)c(CC=C(C)C)c2O)N2CCOCC2)cc(OC)c1OC (centres unmarked) [Compound 16, (E)-1-(2,4-Dihydroxy-3-(3-methylbut-2-en-1-yl)-5-(morpholino(3,4,5-trimethoxyphe-nyl)methyl)phenyl)-3-(4-hydroxyphenyl)prop-2-en-1-one]
[1]; H1975, 20, 40, and 80 µM
  RIP1 protein levels: down-regulation
[1]; H1975, 24 h
  Bax and Cyt C expression: increasing
  Bcl-2 and Akt protein levels: decreasing
  Caspase-9 and -3: cleaving
  Expression of RIP3, p-RIP3, MLKL, and p-MLKL protein levels: increased
H1975 cells [2]
  Cellular ATP levels: gradually decreased
H1975 cells [3]; H1975, 1 μM
  Colony formation rate: 51.34%
H1975 cells [3]; H1975, 2 μM
  Colony formation rate: 27.70%
H1975 cells [3]; H1975, 4 μM
  Colony formation rate: 14.87%
PC9
  IC50: 16.1 µM
H1975 cells [4]; H1975, 10 μM, 6 h
  Intracellular ROS level enhancement: 1.86%
H1975 cells [4]; H1975, 20 μM, 6 h
  Intracellular ROS level enhancement: 2.21%
H1975 cells [4]; H1975, 40 μM, 6 h
  Intracellular ROS level enhancement: 3.74%
H1975 cells [4]; H1975, 80 μM, 6 h
  Intracellular ROS level enhancement: 5.82%
H1975 cells [4]; H1975, compound 16 (40 μM) alone, Figure 6(E)
  Intracellular ROS level enhancement: 3.75%
H1975 cells [4]; H1975, compound 16 (40 μM) in combination with NAC (20 μM), Figure 6(E)
  Intracellular ROS level enhancement: 2.02%
A549
  Enhancement of cytotoxic effects compared to IBC: 1.53 fold
A549; Homo sapiens, 72 h, MTT
  IC50: 14.2 µM
H1975 cells [5]; H1975, 10 μM
  Cell death rate (Annexin V/PI): 14.7%
H1975 cells [5]; H1975, 20 μM
  Cell death rate (Annexin V/PI): 22.7%
H1975 cells [5]; H1975, 40 μM
  Cell death rate (Annexin V/PI): 34.3%
H1975 cells [5]; H1975, 80 μM
  Cell death rate (Annexin V/PI): 54.9%
Aml-12 cells
  SI value (selective inhibition): 2.32
[6]
  IC50 at 72 h: 10.1 ± 0.58 µM
H1975; H1975, compound 16 (40 μM) 24 h, pre-treatment with NAC, p < 0.01, Figure 6(F)
  Effect of NAC on compound 16 induced cell death (cell viability): protective effect
H1975; H1975, compound 16 (40 μM) 24 h, pre-treatment with NSA (20 μM), p < 0.01
  Effect of NSA (MLKL inhibitor) on compound 16 induced necroptosis (cell viability): protective effect
H1975; H1975, compound 16 (40 μM) 24 h with pre-treatment with Nec-1 (20 μM), Figure 4(D)
  Cell viability: 25.33%
H1975; NCI-H1975, 24 h, H1975, compound 16 (40 μM) alone, 24 h, Figure 3(C)
  viability at 40 µM: 12.7%
H1975; NCI-H1975, 24 h, H1975, compound 16 (40 μM) alone, 24 h, Figure 4(D)
  viability at 40 µM: 14.8%
H1975; NCI-H1975, H1975, compound 16 (40 μM) 24 h with pre-treatment with z-VAD-FMK (20 μM), Figure 3(C)
  viability at 40 µM: 35.4%
H1975; H1975 cells, 72 h, MTT, read-out: Cytotoxic activity IC50, H1975
  IC50: 4.35 µM
H1975; read-out: IC50 values against H1975 and A549 cell lines (range over both)
  IC50: 4.35 to 15 µM
